Data taken from US20030068615A1, “Polypeptides that bind HIV gp120 and related nucleic acids, antibodies, compositions, and methods of use” (priority 1999, published 2003).
Read-outs that look alike come from different tables or passages of the source.

Biological target: HIV-1LAI envelope gp120 (Human immunodeficiency virus type 1 group M subtype B, UniProt P03377)
Assay type: binding
Settings: for number of radioactive decays (counts) counted: human CD4 21-mer scan, empty control 2075; for Counts per 20′ Average-background: CCR5 18-mer scan, radiolabeled HIV-1LAI gp120
[1] = Panel E, 9-mers and 12-mers of CD4, empty control 571
[2] = Panel C, 15-mers and 18-mers of CD4, empty control 556
[3] = Panel A, 21-mers of CD4, empty control 515 and 617
[4] = STRL33 18-mer scan, background subtracted, first of two count columns
[5] = STRL33 18-mer scan, background subtracted, second of two count columns
[6] = CXCR4 18-mer scan, background subtracted, empty control 0
[7] = CXCR4 18-mer scan, empty control 412
[8] = Panel D, 9-mers and 12-mers of CD4, empty control […]
[9] = Panel B, 15-mers and 18-mers of CD4, empty control 575

Sequence: KKEGEQVEF
- COUNTS of radiolabeled gp120 retained [1]: 546 counts

Sequence: KKEGEQVEFSFP
- COUNTS of radiolabeled gp120 retained [1]: 598 counts

Sequence: KKEGEQVEFSFPLAF
- COUNTS of radiolabeled gp120 retained [2]: 1921 counts

Sequence: KKEGEQVEFSFPLAFTVE
- COUNTS of radiolabeled gp120 retained [2]: 4683 counts

Sequence: KKEGEQVEFSFPLAFTVEKLT
- COUNTS of radiolabeled gp120 retained [3]: 1847 counts

Sequence: KKLPLHLTLPQALPQYAGSGN [human CD4 276-296]
- number of radioactive decays (counts) counted: 1922 counts

Sequence: KKVEFKIDI
- COUNTS of radiolabeled gp120 retained [1]: 501 counts

Sequence: KKVEFKIDIVVL
- COUNTS of radiolabeled gp120 retained [1]: 597 counts

Sequence: KKVEFKIDIVVLAFQ
- COUNTS of radiolabeled gp120 retained [2]: 951 counts

Sequence: KKVEFKIDIVVLAFQKAS
- COUNTS of radiolabeled gp120 retained [2]: 912 counts

Sequence: KLICGYHDEAISTVVLAT [STRL33 segment 177-194]
- radioactive counts recorded in twenty minutes [4]: 1363.5 counts
- radioactive counts recorded in twenty minutes [5]: 1604.5 counts

Sequence: KLLAEKVVYVGVWIPALL
- radioactive counts recorded in twenty minutes [6]: 89 counts
- radioactive counts recorded in twenty minutes [7]: 501 counts

Sequence: KLQMGKKLPLHLTLPQALPQY
- number of radioactive decays (counts) counted: 1949 counts

Sequence: KLQSLTDVFLVNLPLADL [STRL33 segment 61-78]
- radioactive counts recorded in twenty minutes [4]: 412.5 counts
- radioactive counts recorded in twenty minutes [5]: 348.5 counts

Sequence: KLSHSKGHQKRKALKTTV [CXCR4 segment 225-242]
- radioactive counts recorded in twenty minutes [6]: 130 counts
- radioactive counts recorded in twenty minutes [7]: 542 counts

Sequence: KLTGSGELW
- COUNTS of radiolabeled gp120 retained [1]: 491 counts

Sequence: KLTGSGELWWQAERASSSKSW [human CD4 231-251]
- number of radioactive decays (counts) counted: 1878 counts

Sequence: KLVKDIGCLPYLGVSHQW [STRL33 segment 301-318]
- radioactive counts recorded in twenty minutes [4]: −2.5 counts
- radioactive counts recorded in twenty minutes [5]: 27.5 counts

Sequence: KNFWKLVKDIGCLPYLGV [STRL33 segment 297-314]
- radioactive counts recorded in twenty minutes [4]: 143.5 counts
- radioactive counts recorded in twenty minutes [5]: 82.5 counts

Sequence: KNLKIEDSD
- COUNTS of radiolabeled gp120 retained [8]: 612 counts

Sequence: KNLKIEDSDTYI
- COUNTS of radiolabeled gp120 retained [8]: 523 counts

Sequence: KNLKIEDSDTYICEV
- COUNTS of radiolabeled gp120 retained [9]: 562 counts

Sequence: KNLKIEDSDTYICEVEDQ
- COUNTS of radiolabeled gp120 retained [9]: 708 counts

Sequence: KRGGHSSVSTESESSSFH [CXCR4 segment 333-350]
- radioactive counts recorded in twenty minutes [6]: 167 counts
- radioactive counts recorded in twenty minutes [7]: 579 counts

Sequence: KRHRAVRLIFTIMIVYFL [CCR5 segment 229-]
- Counts per 20′ Average-background (background subtracted): 36 counts per 20′

Sequence: KRLLSEKKTCQCPERFQKTCS [human CD4 436-456]
- number of radioactive decays (counts) counted: 1674 counts

Sequence: KVEFKIDIV
- COUNTS of radiolabeled gp120 retained [1]: 555 counts

Sequence: KVEFKIDIVVLA
- COUNTS of radiolabeled gp120 retained [1]: 560 counts

Sequence: KVEFKIDIVVLAFQK
- COUNTS of radiolabeled gp120 retained [2]: 1051 counts

Sequence: KVEFKIDIVVLAFQKASS
- COUNTS of radiolabeled gp120 retained [2]: 1011 counts

Sequence: KVEFKIDIVVLAFQKASSIVY
- COUNTS of radiolabeled gp120 retained [3]: 635 counts

Sequence: KVTSLLIWVISLLVSLPQ
- radioactive counts recorded in twenty minutes [4]: −39.5 counts
- radioactive counts recorded in twenty minutes [5]: −118.5 counts

Sequence: LAFQKASSI
- COUNTS of radiolabeled gp120 retained [1]: 592 counts

Sequence: LAFQKASSIVYK
- COUNTS of radiolabeled gp120 retained [1]: 465 counts

Sequence: LAFQKASSIVYKKEG
- COUNTS of radiolabeled gp120 retained [2]: 593 counts

Sequence: LAFQKASSIVYKKEGEQV
- COUNTS of radiolabeled gp120 retained [2]: 665 counts

Sequence: LAFQKASSIVYKKEGEQVEFS
- COUNTS of radiolabeled gp120 retained [3]: 1410 counts

Sequence: LAFTVEKLT
- COUNTS of radiolabeled gp120 retained [1]: 501 counts

Sequence: LAFTVEKLTGSG
- COUNTS of radiolabeled gp120 retained [1]: 608 counts

Sequence: LAFTVEKLTGSGELW
- COUNTS of radiolabeled gp120 retained [2]: 579 counts

Sequence: LAFTVEKLTGSGELWWQA
- COUNTS of radiolabeled gp120 retained [2]: 866 counts

Sequence: LAFTVEKLTGSGELWWQAERA
- COUNTS of radiolabeled gp120 retained [3]: 3577 counts

Sequence: LEAKTGKLHQEVNLVVMRATQ [human CD4 301-321]
- number of radioactive decays (counts) counted: 1729 counts

Sequence: LFFLLTVPFWAHYAAAQW [CCR5 segment 77-94]
- Counts per 20′ Average-background (background subtracted): 173 counts per 20′

Sequence: LGAKFKTSAQHALTSVSR
- radioactive counts recorded in twenty minutes [6]: 200 counts
- radioactive counts recorded in twenty minutes [7]: 612 counts

Sequence: LGLVLPLLVMVICYSGIL
- Counts per 20′ Average-background (background subtracted): 180 counts per 20′

Sequence: LGMTHCCINPIIYAFVGE [CCR5 segment 285-]
- Counts per 20′ Average-background (background subtracted): 282 counts per 20′

Sequence: LIIKNLKIE
- COUNTS of radiolabeled gp120 retained [8]: 515 counts

Sequence: LIIKNLKIEDSD
- COUNTS of radiolabeled gp120 retained [8]: 619 counts

Sequence: LIIKNLKIEDSDTYI
- COUNTS of radiolabeled gp120 retained [9]: 542 counts

Sequence: LIIKNLKIEDSDTYICEV
- COUNTS of radiolabeled gp120 retained [9]: 634 counts

Sequence: LILAFISLDRYLAIVHAT
- radioactive counts recorded in twenty minutes [6]: 107 counts
- radioactive counts recorded in twenty minutes [7]: 519 counts

Sequence: LILINCKRLKSMTDIYLL [CCR5 segment 53-70]
- Counts per 20′ Average-background (background subtracted): 2 counts per 20′

Sequence: LKARTVTFGVWDSVITWV [CCR5 segment 137-]
- Counts per 20′ Average-background (background subtracted): 74 counts per 20′

Sequence: LKFRKNFWKLVKDIGCLP [STRL33 segment 293-310]
- radioactive counts recorded in twenty minutes [4]: 920.5 counts
- radioactive counts recorded in twenty minutes [5]: 957.5 counts

Sequence: LKIEDSDTY
- COUNTS of radiolabeled gp120 retained [8]: 492 counts

Sequence: LKIEDSDTYICE
- COUNTS of radiolabeled gp120 retained [8]: 635 counts

Sequence: LKIEDSDTYICEVED
- COUNTS of radiolabeled gp120 retained [9]: 846 counts

Sequence: LKIEDSDTYICEVEDQKE
- COUNTS of radiolabeled gp120 retained [9]: 872 counts

Sequence: LKNKEVSVKPVTQDPKLQMGK [human CD4 256-276]
- number of radioactive decays (counts) counted: 2288 counts

Sequence: LKSMTDIYLLNLAISDLF [CCR5 segment 61-78]
- Counts per 20′ Average-background (background subtracted): 210 counts per 20′

Sequence: LLFVITLPFWAVDAVANW
- radioactive counts recorded in twenty minutes [6]: 63 counts
- radioactive counts recorded in twenty minutes [7]: 475 counts

Sequence: LLGIYTINFYTSMLILTC
- radioactive counts recorded in twenty minutes [4]: 499.5 counts
- radioactive counts recorded in twenty minutes [5]: 408.5 counts

Sequence: LLIWVISLLVSLPQIIYG [STRL33 segment 153-170]
- radioactive counts recorded in twenty minutes [4]: 42.5 counts
- radioactive counts recorded in twenty minutes [5]: 75.5 counts

Sequence: LLLTIPDFIFANVSEADD
- radioactive counts recorded in twenty minutes [6]: 1006 counts
- radioactive counts recorded in twenty minutes [7]: 1418 counts

Sequence: LLNLAISDLFFLLTVPFW [CCR5 segment 69-86]
- Counts per 20′ Average-background (background subtracted): 144 counts per 20′

Sequence: LLQGQSLTL
- COUNTS of radiolabeled gp120 retained [8]: 568 counts

Sequence: LLQGQSLTLTLE
- COUNTS of radiolabeled gp120 retained [8]: 1320 counts

Sequence: LLRCRNEKKRHRAVRLIF
- Counts per 20′ Average-background (background subtracted): 102 counts per 20′

Sequence: LLSDSGQVLLESNIKVLPTWS [human CD4 371-391]
- number of radioactive decays (counts) counted: 2375 counts

Sequence: LLTIDRYLAVVHAVFALK
- Counts per 20′ Average-background (background subtracted): 31 counts per 20′

Sequence: LLTQMPFNLMKFIRSTHW
- radioactive counts recorded in twenty minutes [4]: 2513.5 counts
- radioactive counts recorded in twenty minutes [5]: 3154.5 counts

Sequence: LLVFGLTAN
- COUNTS of radiolabeled gp120 retained [8]: 576 counts

Sequence: LLVFGLTANSDT
- COUNTS of radiolabeled gp120 retained [8]: 533 counts

Sequence: LLVFGLTANSDTHLL
- COUNTS of radiolabeled gp120 retained [9]: 599 counts

Sequence: LLVFGLTANSDTHLLQGQ
- COUNTS of radiolabeled gp120 retained [9]: 568 counts

Sequence: LMKFIRSTHWEYYAMTSF [STRL33 segment 249-266]
- radioactive counts recorded in twenty minutes [4]: 934.5 counts
- radioactive counts recorded in twenty minutes [5]: 949.5 counts

Sequence: LNPEAGMWQCLLSDSGQVLLE [human CD4 361-381]
- number of radioactive decays (counts) counted: 6316 counts

Sequence: LNPILYAFLGAKFKTSAQ [CXCR4 segment 297-314]
- radioactive counts recorded in twenty minutes [6]: 274 counts
- radioactive counts recorded in twenty minutes [7]: 686 counts

Sequence: LNTFQEFFGLNNCSSSNR [CCR5 segment 257-]
- Counts per 20′ Average-background (background subtracted): 293 counts per 20′

Sequence: LPGIIFTRSQKEGLHYTC
- Counts per 20′ Average-background (background subtracted): 118 counts per 20′

Sequence: LPLADLVFVCTLPFWAYA [STRL33 segment 73-90]
- radioactive counts recorded in twenty minutes [4]: 557.5 counts
- radioactive counts recorded in twenty minutes [5]: 960.5 counts

Sequence: LPLLVMVICYSGILKTLL [CCR5 segment 205-]
- Counts per 20′ Average-background (background subtracted): 68 counts per 20′

Sequence: LPPLYSLVFIFGFVGNML [CCR5 segment 33-50]
- Counts per 20′ Average-background (background subtracted): 705 counts per 20′

Sequence: LPTIYSIIFLTGIVGNGL [CXCR4 segment 41-58]
- radioactive counts recorded in twenty minutes [6]: 118 counts
- radioactive counts recorded in twenty minutes [7]: 530 counts

Sequence: LPYLGVSHQWKSSEDNSK
- radioactive counts recorded in twenty minutes [4]: 111.5 counts
- radioactive counts recorded in twenty minutes [5]: 122.5 counts
